These results are taken from ChEMBL document CHEMBL2074520, “Characterization of the high-affinity monocarboxylate transporter MCT2 in Xenopus laevis oocytes” (Biochem J, 1999).

In series [1] the target is T1, Monocarboxylate transporter 1 (Rattus norvegicus) (UniProt P53987).
T1 sequence (whole entry): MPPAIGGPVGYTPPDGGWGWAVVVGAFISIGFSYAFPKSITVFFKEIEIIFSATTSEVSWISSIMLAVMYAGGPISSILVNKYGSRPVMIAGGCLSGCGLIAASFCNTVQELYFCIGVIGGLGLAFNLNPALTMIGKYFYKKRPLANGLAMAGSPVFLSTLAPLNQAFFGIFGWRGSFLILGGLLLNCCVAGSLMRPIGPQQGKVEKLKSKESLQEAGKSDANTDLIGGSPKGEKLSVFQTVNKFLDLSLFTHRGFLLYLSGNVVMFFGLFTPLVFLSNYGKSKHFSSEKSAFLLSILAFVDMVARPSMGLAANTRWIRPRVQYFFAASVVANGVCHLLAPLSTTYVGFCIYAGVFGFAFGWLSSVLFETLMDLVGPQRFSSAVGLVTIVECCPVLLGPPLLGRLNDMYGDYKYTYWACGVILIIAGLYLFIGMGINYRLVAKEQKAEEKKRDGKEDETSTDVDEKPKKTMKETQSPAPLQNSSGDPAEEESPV
Put plainly: (§1) TP_TRANSPORTER: inhibition of lactate uptake in Xenopus laevis oocytes. In kind it is functional, cell-based. Details: concentration or dose not given beside the values. As to conditions: Oocyte.

Series [2] concerns the target T2, Monocarboxylate transporter 2 (Rattus norvegicus) (UniProt Q63344).
T2 sequence (whole entry): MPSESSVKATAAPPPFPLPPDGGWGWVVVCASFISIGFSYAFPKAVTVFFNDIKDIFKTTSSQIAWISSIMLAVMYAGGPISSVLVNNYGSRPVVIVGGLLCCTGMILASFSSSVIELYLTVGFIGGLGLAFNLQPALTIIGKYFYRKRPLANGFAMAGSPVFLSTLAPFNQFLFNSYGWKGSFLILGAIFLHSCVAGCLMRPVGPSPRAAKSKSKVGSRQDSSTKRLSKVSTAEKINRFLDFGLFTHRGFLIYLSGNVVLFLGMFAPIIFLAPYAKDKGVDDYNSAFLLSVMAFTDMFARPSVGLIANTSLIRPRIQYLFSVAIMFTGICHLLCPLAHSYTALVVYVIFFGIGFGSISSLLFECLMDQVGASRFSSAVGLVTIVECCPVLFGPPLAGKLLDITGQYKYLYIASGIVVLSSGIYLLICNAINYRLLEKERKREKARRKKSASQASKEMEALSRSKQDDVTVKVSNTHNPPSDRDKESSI
The description is as §1. The note with it: Oocyte. In kind it is functional, cell-based. Details: concentration or dose not given beside the values.

The target of series [3] is T3, Monocarboxylate transporter 2 (Rattus norvegicus, UniProt Q63344).
T3 sequence (Q63344 whole entry): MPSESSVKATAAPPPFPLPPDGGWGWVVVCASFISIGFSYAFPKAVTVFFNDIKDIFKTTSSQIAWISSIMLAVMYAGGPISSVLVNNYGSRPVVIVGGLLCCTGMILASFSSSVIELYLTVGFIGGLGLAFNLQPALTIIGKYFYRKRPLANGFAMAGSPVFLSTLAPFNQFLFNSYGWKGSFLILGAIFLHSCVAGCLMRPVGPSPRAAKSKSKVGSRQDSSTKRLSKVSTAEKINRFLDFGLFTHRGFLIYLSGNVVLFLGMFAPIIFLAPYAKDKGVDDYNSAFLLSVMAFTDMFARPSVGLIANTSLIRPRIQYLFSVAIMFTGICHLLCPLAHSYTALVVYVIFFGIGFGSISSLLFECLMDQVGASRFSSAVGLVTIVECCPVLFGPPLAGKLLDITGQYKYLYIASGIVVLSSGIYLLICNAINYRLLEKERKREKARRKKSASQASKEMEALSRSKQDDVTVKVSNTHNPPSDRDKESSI
The description is as §1. It is filed as functional, cell-based, Oocyte.

In series [4] the target is T4, Monocarboxylate transporter 1 (Rattus norvegicus, UniProt P53987).
T4 sequence (P53987 whole entry): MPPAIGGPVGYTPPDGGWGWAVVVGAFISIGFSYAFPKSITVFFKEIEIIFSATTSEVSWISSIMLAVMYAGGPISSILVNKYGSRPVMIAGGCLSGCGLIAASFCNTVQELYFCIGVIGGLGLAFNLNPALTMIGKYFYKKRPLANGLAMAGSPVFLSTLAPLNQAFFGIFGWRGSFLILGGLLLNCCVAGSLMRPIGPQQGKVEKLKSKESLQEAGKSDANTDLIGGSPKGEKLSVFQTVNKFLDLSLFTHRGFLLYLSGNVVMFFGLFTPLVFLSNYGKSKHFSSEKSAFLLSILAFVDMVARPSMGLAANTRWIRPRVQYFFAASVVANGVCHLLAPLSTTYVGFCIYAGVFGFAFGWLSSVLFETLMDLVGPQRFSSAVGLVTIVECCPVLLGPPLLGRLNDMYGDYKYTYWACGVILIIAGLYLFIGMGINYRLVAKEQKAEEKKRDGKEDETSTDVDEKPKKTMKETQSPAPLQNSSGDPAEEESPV
The description is as §1. In kind it is functional, cell-based, Oocyte.

Series [5] deals with Monocarboxylate transporter 1 (Rattus norvegicus) (UniProt P53987). Described as §1. It is filed as functional, cell-based. Details: concentration or dose not given beside the values. As to conditions: Oocyte. The source holds these as a separate data set.
Series [6] addresses Monocarboxylate transporter 2 (Rattus norvegicus) (UniProt Q63344). The description is as §1. In kind it is functional, cell-based. Details: concentration or dose not given beside the values. As to conditions: Oocyte. This is another data set of the same source.
Compound in series [7]: C[C@@H](O)C(=O)O
The series is described as §1. In kind it is functional, cell-based. The note with it: Oocyte.

On to `CC(=O)Oc1ccccc1O`, for which the results for the Activity in series [1] and in series [2] were 92% and 105%, respectively.

As to `CCCCCC#CCC#CCC#CCC#CCCCC(=O)O`, the Activity is 117% in series [1] and 125% in series [2].

As to `CCCN(CCC)S(=O)(=O)c1ccc(C(=O)O)cc1`, the results for the Activity in series [1] and in series [2] were 110% and 88%, respectively.

With `O=C(O)C(O)c1ccccc1` (stereo not drawn), the Activity in series [1] is 97%; in series [2] it was 117%.

As to `O=C(O)CC12CC3CC(CC(C3)C1)C2`, the Activity in series [1] is 96%; in series [2], 113%.

Turning to `O=C(O)c1c2ccccc2cc2ccccc12`, the Activity in series [1] was 102%; in series [2] it was 104%.

In the case of `O=C(O)c1cc([N+](=O)[O-])ccc1NCCCc1ccccc1`, the Activity in series [1] is 54%; in series [2], 25%.

`O=C(O)c1ccc(-c2ccccc2)cc1`: the Activity was 88% in series [1] and 74% in series [2].

`O=C(O)c1cccnc1Nc1cccc(C(F)(F)F)c1`: the figures for the Activity in series [1] and in series [2] were 36% and 14%, respectively.

Regarding `O=[N+]([O-])c1ccc(/C=C/c2ccc([N+](=O)[O-])cc2S(=O)(=O)O)c(S(=O)(=O)O)c1`, the Activity in series [1] is 112%; in series [2] it was 119%.

Take `c1ccc(CSSCc2ccccc2)cc1`: the Activity in series [1] is 99%; in series [2], 44%.

For `CC(O)CC(=O)O` (racemic) [3-HYDROXYBUTYRIC ACID, (+/-)-], affinity in series [3] was put at a Ki of 1200 µM.

For the molecule `CC(C)CC(=O)C(=O)O` [2-Oxoisohexanoate], the affinity in series [3] corresponds to a Ki of 100 µM.

Turning to `CC(C)C(=O)C(=O)O` [2-Oxoisovalerate], the inhibition constant (Ki) (in general, a measure of affinity in units of concentration, obtained from inhibition or displacement) in series [3] came out at 300 µM.

For the molecule `CC(=O)CC(=O)O` [ACETOACETIC ACID], in series [3], the affinity corresponds to a Ki of 800 µM.

As for `CCc1oc2ccccc2c1C(=O)c1cc(Br)c(O)c(Br)c1` [BENZBROMARONE], the values for the IC50 in series [4] and in series [3] were 22 µM and 9 µM, respectively. Besides, the Activity in series [1] was 19%; in series [2] it was 12%.

As to `O=C(CCc1ccc(O)cc1)c1c(O)cc(O)cc1O` [PHLORETIN], the IC50 – broadly, the midpoint of a concentration-inhibition curve – in series [4] amounted to 28 µM; in series [3] it was 14 µM. Further, the Activity is 14% in series [1] and 3% in series [2].

With `CC(=O)C(=O)O` [PYRUVATE], the affinity in series [3] corresponds to a Ki of 80 µM.

As for `O=c1c(O)c(-c2ccc(O)c(O)c2)oc2cc(O)cc(O)c12` [QUERCETIN], the figures for the IC50 in series [4] and in series [3] were 14 µM and 5 µM, respectively. In addition, the results for the Activity in series [1] and in series [2] were 11% and 17%, respectively.

As for `N#C/C(=C\c1ccc(O)cc1)C(=O)O` [alpha-CYANO-4-HYDROXYCINNAMIC ACID], the values for the IC50 in series [4] and in series [3] were 425 µM and 24 µM, respectively. The results for the Activity in series [1] and in series [2] were 74.4% and 34%, respectively.

As to MERCURIC CHLORIDE, the Activity is 37% in series [5] and 54% in series [6].

For the molecule p-Chloromercuribenzenesulfonate, the Activity in series [5] is 9%; in series [6] it was 118%.

B1: Monocarboxylate transporter 2 (Rattus norvegicus), Q63344 (protein)
chain: MPSESSVKATAAPPPFPLPPDGGWGWVVVCASFISIGFSYAFPKAVTVFFNDIKDIFKTTSSQIAWISSIMLAVMYAGGPISSVLVNNYGSRPVVIVGGLLCCTGMILASFSSSVIELYLTVGFIGGLGLAFNLQPALTIIGKYFYRKRPLANGFAMAGSPVFLSTLAPFNQFLFNSYGWKGSFLILGAIFLHSCVAGCLMRPVGPSPRAAKSKSKVGSRQDSSTKRLSKVSTAEKINRFLDFGLFTHRGFLIYLSGNVVLFLGMFAPIIFLAPYAKDKGVDDYNSAFLLSVMAFTDMFARPSVGLIANTSLIRPRIQYLFSVAIMFTGICHLLCPLAHSYTALVVYVIFFGIGFGSISSLLFECLMDQVGASRFSSAVGLVTIVECCPVLFGPPLAGKLLDITGQYKYLYIASGIVVLSSGIYLLICNAINYRLLEKERKREKARRKKSASQASKEMEALSRSKQDDVTVKVSNTHNPPSDRDKESSI
With B1, the Km (in general, the concentration of substrate that gives half-maximal velocity) in series [7] turned out to be 740 µM.
